Measured values published in US11912693B2, “Compounds for modulating S1P1 activity and methods of using the same” (TREVENA, INC., priority 2017, dated 2024).

Columns and labels:
[1] = molecular target: T1, human sphingosine-1-phosphate receptor 1 (S1P1) (Homo sapiens (Human), UniProt P21453); experiment: Inhibition of cAMP production (HTRF cAMP HiRange), S1P1 CHO-K1 cells; assay type: cell-based; settings: for hS1P1 cAMP pEC50: inhibition of cAMP production, S1P1 CHO-K1 cells; for Emax: CHO-K1, efficacy (SPAN) normalized to fingolimod, read-out: hS1P1 cAMP SPAN
Summary of the method: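 CHO-K1 cells stably co-expressing human S1P1 (C-terminal Prolink tag) and EA-β-arrestin2 were grown in AssayComplete Media 6 at 37° C. and 5% CO2, plated, and incubated overnight. Agonist-driven inhibition of intracellular cAMP was read by TR-FRET with the HTRF cAMP HiRange kit on a PheraStar reader. Potency is pEC50, and efficacy (SPAN) is normalized to fingolimod.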
Target sequence in this assay (P21453 whole entry, looked up): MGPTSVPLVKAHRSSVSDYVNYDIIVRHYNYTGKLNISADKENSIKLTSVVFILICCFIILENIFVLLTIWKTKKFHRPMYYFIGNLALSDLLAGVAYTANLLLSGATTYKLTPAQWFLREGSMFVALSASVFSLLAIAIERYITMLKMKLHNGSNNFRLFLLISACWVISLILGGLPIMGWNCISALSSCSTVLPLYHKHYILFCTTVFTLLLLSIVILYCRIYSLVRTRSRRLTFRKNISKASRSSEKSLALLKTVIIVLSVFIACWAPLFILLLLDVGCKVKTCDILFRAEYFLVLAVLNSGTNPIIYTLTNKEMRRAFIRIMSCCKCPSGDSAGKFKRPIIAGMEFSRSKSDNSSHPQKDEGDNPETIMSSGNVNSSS

[2] = molecular target: T1, human sphingosine-1-phosphate receptor 1 (S1P1); experiment: β-Arrestin2 recruitment assay (PathHunter), S1P1 CHO-K1 cells; assay type: cell-based; settings: for hS1P1 B-arrestin2 pEC50: β-arrestin2 recruitment, S1P1 CHO-K1 cells; for Emax: CHO-K1, efficacy (SPAN) normalized to fingolimod, read-out: hS1P1 B-arrestin2 SPAN
Summary of the method: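 Enzyme-fragment complementation read-out: agonist-driven β-arrestin2 binding to ProLink-tagged human S1P1 in stable CHO-K1 cells restores β-galactosidase, measured 1 h at room temperature after a 60 min 37° C. compound incubation. Potency as pEC50, efficacy relative to fingolimod (SPAN).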
Target sequence in this assay (P21453 whole entry, looked up): as above
Target sequence in this assay (P32121 whole entry partner, looked up): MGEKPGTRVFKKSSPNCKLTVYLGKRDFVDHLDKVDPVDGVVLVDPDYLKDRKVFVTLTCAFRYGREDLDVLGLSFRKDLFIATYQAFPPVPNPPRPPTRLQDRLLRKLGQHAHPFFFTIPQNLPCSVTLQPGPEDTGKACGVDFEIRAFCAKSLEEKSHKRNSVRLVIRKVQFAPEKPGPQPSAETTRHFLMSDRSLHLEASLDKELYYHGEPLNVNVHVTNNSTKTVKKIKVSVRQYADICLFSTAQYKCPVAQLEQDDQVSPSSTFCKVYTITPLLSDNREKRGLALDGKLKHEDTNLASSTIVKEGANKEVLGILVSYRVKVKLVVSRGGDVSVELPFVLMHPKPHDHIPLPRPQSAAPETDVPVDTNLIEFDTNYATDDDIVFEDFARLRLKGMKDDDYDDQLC

SMILES | hS1P1 cAMP pEC50 [1] | hS1P1 B-arrestin2 pEC50 [2] | Emax [1] [%] | Emax [2] [%]
CCc1ccccc1-c1nc(-c2ccc3c(c2)nnn3CC(C)(C)CO)no1 [Compound 527, 3-(5-(5-(2-ethylphenyl)-1,2,4-oxadiazol-3-yl)-1H-benzo[d][1,2,3]triazol-1-yl)-2,2-dimethylpropan-1-ol] | <6.5 | <5 | – | –
CC(C)(CO)Cn1nnc2cc(-c3noc(-c4ccncc4C(F)(F)F)n3)ccc21 [Compound 528, 2,2-dimethyl-3-(5-(5-(3-(trifluoromethyl)pyridin-4-yl)-1,2,4-oxadiazol-3-yl)-1H-benzo[d][1,2,3]triazol-1-yl)propan-1-ol] | <6.5 | <5 | – | –
CC(C)(CO)Cn1nnc2cc(-c3noc(-c4cnccc4C(F)(F)F)n3)ccc21 [Compound 529, 2,2-dimethyl-3-(5-(5-(4-(trifluoromethyl)pyridin-3-yl)-1,2,4-oxadiazol-3-yl)-1H-benzo[d][1,2,3]triazol-1-yl)propan-1-ol] | <6.5 | >5 | – | –
CCC1(CC)CC(=O)c2cc(-c3ncc(-c4ccccn4)cn3)ccc2O1 [Compound 530, 2,2-diethyl-6-(5-(pyridin-2-yl)pyrimidin-2-yl)chroman-4-one] | <6.5 | <5 | – | –
COc1cc(NC(C)=O)ccc1-c1noc(-c2ccc3c(c2)nnn3C(C)C)n1 [Compound 532, N-(3-methoxy-4-{5-[1-(propan-2-yl)-1H-1,2,3-benzotriazol-5-yl]-1,2,4-oxadiazol-3-yl}phenyl)acetamide] | >6.5 | >5 | > 75 | < 75
COc1cc(NC(C)=O)ccc1-c1noc(-c2ccc3nonc3c2)n1 [Compound 533, N-{4-[5-(2,1,3-benzoxadiazol-5-yl)-1,2,4-oxadiazol-3-yl]-3-methoxyphenyl}acetamide] | <6.5 | <5 | – | –
COCCn1cc(-c2ccccc2C)cc1-c1ccc2c(c1)nnn2C(C)C [Compound 534, 5-[1-(2-methoxyethyl)-4-(2-methylphenyl)-1H-pyrrol-2-yl]-1-(propan-2-yl)-1H-1,2,3-benzotriazole] | <6.5 | <5 | < 75 | < 75
CC1CC(=O)c2ccc(-c3nc(-c4cccnc4)no3)cc2O1 (stereo not shown) [Compound 535, 2-methyl-7-[3-(pyridin-3-yl)-1,2,4-oxadiazol-5-yl]-3,4-dihydro-2H-1-benzopyran-4-one] | <6.5 | >5 | – | –
CC1CC(=O)c2ccc(-c3nc(-c4ccncc4)no3)cc2O1 (stereo not shown) [Compound 536, 2-methyl-7-[3-(pyridin-4-yl)-1,2,4-oxadiazol-5-yl]-3,4-dihydro-2H-1-benzopyran-4-one] | <6.5 | >5 | – | –
CCC1(CC)CC(=O)c2cc(-c3nc(-c4cncc(C(N)=O)c4)no3)ccc2O1 [Compound 537, 5-(5-(2,2-diethyl-4-oxochroman-6-yl)-1,2,4-oxadiazol-3-yl)nicotinamide] | >6.5 | >5 | – | –
CCC1(CC)CC(=O)c2cc(-c3nc(-c4cncc(NC(C)=O)c4)no3)ccc2O1 [Compound 538, N-(5-(5-(2,2-diethyl-4-oxochroman-6-yl)-1,2,4-oxadiazol-3-yl)pyridin-3-yl)acetamide] | >6.5 | >5 | – | –
CCC1(CC)CC(=O)c2cc(-c3nc(-c4ccc5[nH]c(=O)[nH]c5c4)no3)ccc2O1 [Compound 539, 5-(5-(2,2-diethyl-4-oxochroman-6-yl)-1,2,4-oxadiazol-3-yl)-1H-benzo[d]imidazol-2(3H)-one] | >6.5 | >5 | – | –
